US20230374113A1, “FERRITIN NANOCAGE FUSED WITH PD-L1-BINDING PEPTIDE 1 AND USE THEREOF AS ANTICANCER IMMUNOTHERAPY AGENT” (KYUNGPOOK NATIONAL UNIVERSITY INDUSTRY-ACADEMIC COOPERATION …, priority 2020, published 2023)

Key:
[1] = Dynamic light scattering (DLS) analysis of cage size; assay type: physicochemical
[2] = system: MDA-MB231 cells expressing PD-L1; assay: Culture cell binding assay (confocal) on MDA-MB231 cells; assay type: cell-based; details: 100 nM, 4° C., 1 hour; anti-human ferritin heavy chain antibody staining
Procedure: (§1) Confocal laser scanning microscopy (Confocal) was performed. After culturing triple negative breast cancer cells (MDA-MB 231) or colorectal cancer cells (CT26), a group treated with 25 ng/ml of interferon-γ and a group without treatment were cultured at 37° C. for 24 hours. These cells are cancer cells expressing the PD-L1 receptor and are known to have expression increased upon interferon-γ treatment. […] In order to block nonspecific binding of PD-L1 proteins, blocking was performed using 1% BSA dissolved in PBS at room temperature for 1 hour, then BSA was removed, and PpNF, PpLF, and PpCF (100 nM) were reacted at 4° C. for 1 hour. After washing with PBS, a reaction was performed using anti-human ferritin heavy chain antibodies (1:200 ratio) for 1 hour, followed by staining (green). After fixing with 4% paraformaldehyde, observation was performed under a confocal microscope. To observe the nucleus, DAPI was dissolved in PBS in a ratio of 1:1000, and staining was performed at room temperature for 5-10 minutes (blue).

[3] = system: CT26 cells expressing PD-L1; assay: Culture cell binding assay (confocal) on CT26 cells; assay type: cell-based, mouse; details: 100 nM, 4° C., 1 hour; anti-human ferritin heavy chain antibody staining
Procedure: as §1

[4] = system: MCF-7 cells that do not express PD-L1; assay: Culture cell binding assay (confocal) on MCF-7 control cells; assay type: cell-based; details: 100 nM, 4° C., 1 hour; PD-L1-negative control cells
PD-1/PD-L1 binding = target: T1, PD-1/PD-L1 binding (Mus musculus, UniProt Q9EP73); assay: Co-culture of CT26 cancer cells and activated CD8+ T cells (immune checkpoint inhibitory function in vitro); assay type: cell-based
T1 construct: endogenous in cells
Procedure: CD8^+ T cells were extracted from the spleen obtained by sacrificing BALB/C mice. Extracted CD8^+ T cells were treated with interleukin-2/interleukin-15 and anti-CD-3 antibody/anti-CD-28 antibody each for 24 hours for activation. Prior to treating activated CD8^+ T cells with CFSE and performing symbiotic culture of tumor cells (CT26, mouse colon cancer), tumor cells were pretreated with anti-PD-L1 antibody, PpNF (25 nM or 50 nM), and PD-L1pep1 (50 nM), respectively, and interactions of PD-L1 of tumor cells and […] CD8^+ T cells were inhibited, respectively. After symbiotic culture for 24 hours, CD8^+ T cells were isolated (FIG. 4A). The degree of CFSE binding to isolated T cells was measured with a flow cytometer (FIG. 4B). In addition, the amount of interferon gamma secreted by isolated T cells was measured using an enzyme-linked immunosorbent assay (FIG. 4C).
CD8^+ T cells isolated from mice were activated (IL-2/IL-15 treatment and anti-CD3/anti-CD28 treatment), labeled with fluorescence (CFSE staining), and cultured with CT26 colorectal cancer cells.

GL26 glioblastoma = details: mouse, in vivo
Procedure: In addition, the glioblastoma targeting effect of the immune checkpoint blocking nanocage was identified. GL26, a glioblastoma cell line, was injected into the left side of the mouse brain to create an orthotopic GBM model and fluorescently labeled PBP1-N-FtH was injected into the tail vein [control: saline, ferritin].

CT26 tumor = assay type: in vivo, BALB/c wildtype mice
Procedure: CT26 cells were injected subcutaneously into the upper right thigh of BALB/c wildtype mice. When the tumor was about 100 mm^3 in size, mice were randomly divided into four groups. […] A total of 10 injections were performed once every two days (once every 4 days, repeated 6 times in total for anti-PD-L1 antibodies) to measure tumor size and weight of mice (FIGS. 7B and 7D). After 3 weeks, the tumor was removed by sacrificing mice and the tumor was weighed (FIG. 7C). The extracellular matrix of the removed tumor was degraded with collagenase to form single cells, and antibodies against labeled proteins of CD4^+ T cells, CD8^+ T cells, and regulatory T cells were each treated to analyze how many T cells are each present in the tumor by flow cytometry (FIGS. 7E to 7G).

[5] = Biotoxicity via blood and serologic analysis; assay type: in vivo, mice
Procedure: After antitumor animal experiments, blood and serum were collected from each group when sacrificing mice, and the amounts of red blood cells, hemoglobin, hematocrit, white blood cells, and neutrophils in the blood, blood urea nitrogen in serum, creatinine, alanine aminotransferase, and aspartate aminotransferase were measured and compared.

[6] = system: CT-2A cells overexpressing PD-L1; assay: In vitro binding to CT-2A glioma cells; assay type: cell-based, mouse; details: 4° C., 1 h; compared to wFTH
Procedure: (§2) Mouse glioma cells, CT-2A or GL26 cells, were treated with PpNF or wild-type ferritin (wFTH) at 4° C. for 1 h; binding was monitored by antiferritin antibody (green). Nuclei were visualized by counterstaining with DAPI (blue). Scale bars: 30 μm.

[7] = system: GL26 cells overexpressing PD-L1; assay: In vitro binding to GL26 glioma cells; assay type: cell-based, mouse; details: 4° C., 1 h; compared to wFTH
Procedure: as §2

CT-2A glioma [8] = system: CT-2A glioma; design: species or system C57BL/6 mice; details: mouse, in vivo, iv
Procedure: (A) Representative images of the upper body of mice. The yellow circle indicates the tumor. C57BL/6 mice were implanted with CT-2A glioma cells (3×10^5). At 14 days after intracranial inoculation, the tumor-bearing mice were intravenously injected with Flamma 675-labeled PpNF or wFTH followed by in vivo scanning with the IVIS imaging system. (B) Ex vivo biodistribution was examined at 24 h postinjection.
B6 mice aged 6-8 weeks were anesthetized with an intraperitoneal injection of Zoletil 50 (20 mg/kg, Virba) and Rompun (4 mg/kg, Bayer). For stereotactic intracranial injections of CT-2A cells, the surgical site was shaved and prepared with 70% ethyl alcohol. After disinfection and incision of the skin, tumor cells were stereotaxically implanted in the brain using the following coordinates: AP=+0.2 mm; ML=+2 mm; DV=−3 mm from the bregma. CT-2A cells (10^4 cells) were resuspended in 3 μl of PBS and implanted at an infusion rate of 3 μl/5 min.
For in vivo targeting of PD-L1pep ferritin nanocages in intracranial brain tumors, CT-2A cells (3×10^5 cells) were resuspended in 3 μl of PBS and implanted in the brain. At 14 days after implantation of CT-2A cells, Flamma 675-labeled Pp1NF, Pp2NF, and wt ferritin were intravenously injected (n=3 mice/group). […] Fluorescence emission values were analyzed as photons per second per centimeter squared per steradian (p/s/cm^2/sr).

CT-2A glioma [9] = assay: Antitumor activity in orthotopic CT-2A glioma mouse model; assay type: in vivo, C57BL/6 mice; details: 5 mg/kg intravenously three times per week, six injections
Procedure: (A) Experimental scheme for antitumor treatments. CT-2A syngeneic mouse brain tumor cells were implanted into the brains of C57BL/6 mice. Treatments were initiated at 7 days after confirming tumor growth by MRI. PpNF (5 mg/kg, n=3) or wFTH (5 mg/kg, n=3) were intravenously injected three times per week. (B) Representative brain MRI images showing tumor growth at 7, 14, and 21 days. The dotted line indicates the tumor region. (C) Tumor volumes measured by MRI. (D) Body weights. Data represent mean±SEM (*p<0.05; t-test). The data presented are representative of three independent experiments. B6 mice aged 6-8 weeks were anesthetized with an intraperitoneal injection of Zoletil 50 (20 mg/kg, Virba) and Rompun (4 mg/kg, Bayer). For stereotactic intracranial injections of CT-2A cells, the surgical site was shaved and prepared with 70% ethyl alcohol. After disinfection and incision of the skin, tumor cells were stereotaxically implanted in the brain using the following coordinates: AP=+0.2 mm; ML=+2 mm; DV=−3 mm from the bregma. CT-2A cells (10^4 cells) were resuspended in 3 μl of PBS and implanted at an infusion rate of 3 μl/5 min. […] Tumor growth was examined by animal MRI (7T BioSpec 70/20USR) in the tumor-bearing mice using Onis 2.5 viewer software, and tumor volume was calculated (Average tumor cross-sectional area (mm^2)×summed thickness of tumor cross-sections (mm).

[10] = system: CD8+ T cells cocultured with CT-2A; assay: Triple coculture of CD8+ T cells with CT-2A glioma cells and primary glia; assay type: cell-based, mouse; details: 25 nM, 48 h triple coculture
Procedure: CD8^+ T cells were directly cocultured with CT-2A (A,B) or GL26 (C, D) glioma cells in the presence of glia. Cocultures were treated with 25 nM wild-type nanocage (wFTH), PD-L1pep1 ferritin nanocage (PpNF) or their corresponding buffer (buf), respectively. Fold changes in IFN-γ secretion during triple coculture using (A) CT-2A or (C) GL26 cells with the indicated treatments. T cell-only group was used as a control. (B) Proliferation of CD8^+ T cells during coculture with CT-2A and primary glia. The percentages of daughter cells upon cell division were determined using CellTrace Violet (CTV) dye. (D) Expression of CD107a on the surface of CD8^+ T cells after triple coculture using GL26. The percentages of CD107a^+ populations in live CD8^+ T cells were measured by flow cytometry. All graphs represent mean±SD; n=3 independent wells. […]
(§3) Cocultures were treated with 25 nM ferritin nanocages (PpNF or Pp2NF) including the wild-type nanocage (wFTH) or their corresponding buffer, respectively. […] IFN-γ concentrations were quantified with a mouse IFN-γ ELISA kit (R&D Systems Inc., SMIF00) as previously described. […]
Annexin-V as described above. The percentages of CTV dilution upon cell division were measured by flow cytometry. All flow cytometry data were obtained using a BD FACS Verse cytometer and analyzed by FlowJo software (Tree Star).

[11] = system: CD8+ T cells cocultured with GL26; assay: Triple coculture of CD8+ T cells with GL26 glioma cells and primary glia; assay type: cell-based, mouse; details: 25 nM, 48 h triple coculture, IFN-γ secretion, CD107a
Procedure: CD8^+ T cells were directly cocultured with CT-2A (A,B) or GL26 (C, D) glioma cells in the presence of glia. Cocultures were treated with 25 nM wild-type nanocage (wFTH), PD-L1pep1 ferritin nanocage (PpNF) or their corresponding buffer (buf), respectively. Fold changes in IFN-γ secretion during triple coculture using (A) CT-2A or (C) GL26 cells with the indicated treatments. T cell-only group was used as a control. (B) Proliferation of CD8^+ T cells during coculture with CT-2A and primary glia. The percentages of daughter cells upon cell division were determined using CellTrace Violet (CTV) dye. (D) Expression of CD107a on the surface of CD8^+ T cells after triple coculture using GL26. The percentages of CD107a^+ populations in live CD8^+ T cells were measured by flow cytometry. All graphs represent mean±SD; n=3 independent wells. (*p<0.05, **p<0.01, ***p<0.001, and ****p<0.0001; multiple comparisons were conducted using one-way ANOVA followed by Tukey's test.)
Primary glia were cultured from C57BL/6 mice, and the cells were seeded in a 96-well flat bottom plate at a density of 10^4 cells/well. […]
as §3

T1 sequence (Q9EP73 19-290): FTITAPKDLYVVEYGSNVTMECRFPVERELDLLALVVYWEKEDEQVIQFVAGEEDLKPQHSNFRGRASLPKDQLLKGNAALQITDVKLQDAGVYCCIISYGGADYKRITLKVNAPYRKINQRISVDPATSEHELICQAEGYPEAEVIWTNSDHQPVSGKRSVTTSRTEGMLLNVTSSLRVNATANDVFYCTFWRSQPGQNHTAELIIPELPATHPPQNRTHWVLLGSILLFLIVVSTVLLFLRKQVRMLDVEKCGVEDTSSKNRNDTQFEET

Q: With “PpNF: Ferritin nanocage: PD-L1-binding peptide 1 (CLQKTPKQC) inserted at nitrogen terminal of human ferritin heavy chain fragment (1-161) with GG linker” as the substance, how does the “cage size (DLS)” value [1] read?
A: The value was “about 24 nm”.

Q: And the “binding in MDA-MB231 cells” value [2]?
A: The value was “bound”.

Q: And the “binding in CT26 cells” value [3]?
A: The value was “bound”.

Q: And the “binding in MCF-7 cells” value [4]?
A: The value was “the binding did not take place”.

Q: And the “IFN-γ secreted by T cells (ELISA)” value (PD-1/PD-L1 binding; 24 hours co-culture, PpNF 25 nM or 50 nM)?
A: Its value is “IFN-γ increment”.

Q: And the “immune checkpoint inhibitory effect versus comparators” value (PD-1/PD-L1 binding; versus PD-L1 antibody, PD-L1pep1 (50 nM))?
A: Its value is “better than that of PD-L1 antibody or PD-L1pep1”.

Q: What about the “glioblastoma targeting (brain fluorescence signal)” value (GL26 glioblastoma) of the same substance?
A: Its value is “targeted to the tumor site on the left side of the brain”.

Q: And the tumor growth (CT26 tumor; 10 mg/kg tail vein, 10 injections once every two days)?
A: Its tumor growth is “significantly inhibited tumor growth compared to the control”.

Q: What about the “weight of the tumor” value (CT26 tumor; after 3 weeks) of the same substance?
A: Its value is “much smaller”.

Q: And the “proportion of CD8+ T cells in the tumor” value (CT26 tumor; flow cytometry)?
A: Its value is “increasing the proportion of CD8^+ T cells in the tumor”.

Q: And the “ratio of CD8+ T cells and regulatory T cells in the tumor” value (CT26 tumor; flow cytometry)?
A: Its value is “significantly increased compared to the control”.

Q: And the hematologic change ([5]; blood after antitumor animal experiments)?
A: The hematologic change was “no significant hematologic change”.

Q: What about the “hepatotoxicity or nephrotoxicity (BUN, creatinine, ALT, AST)” value ([5]; serum after antitumor animal experiments) of the same substance?
A: The value was “No hepatotoxicity or nephrotoxicity was observed”.

Q: What about the “binding in CT-2A glioma cells” value [6] of the same substance?
A: The value was “bound specifically”.

Q: What about the “binding in GL26 glioma cells” value [7] of the same substance?
A: Its value is “bound specifically”.

Q: And the BBB crossing (CT-2A glioma [8])?
A: The BBB crossing was “crossed the BBB”.

Q: And the “accumulation in glioblastoma in the brain” value (CT-2A glioma [8])?
A: Its value is “accumulated in glioblastoma expressed in the brain by 24 hours”.

Q: What about the “antitumor effects (tumor volume by MRI)” value (CT-2A glioma [9]) of the same substance?
A: The value was “showed antitumor effects”.

Q: And the “proliferation of CD8+ T cells” value ([10]; CTV dye)?
A: Its value is “increased”.

Q: What about the “activity of CD8+ T cells” value ([10]; IFN-γ secretion) of the same substance?
A: The value was “increased”.

Q: What about the “activity of CD8+ T cells” value [11] of the same substance?
A: Its value is “increased”.
